Literature values, collected in EP0759941B1, “HETERODIMER POLYPEPTIDEIMMUNOGEN CARRIER COMPOSITION AND METHOD FOR THEIR USE” (S.P.I. SYNTHETIC PEPTIDES INCORPORATED, priority 1994, dated 1995).

System: primed (human) donors
Details: recognized by all primed (human) donors; cited from earlier work

Substance	immunogenicity (recognition by primed donors irrespective of MHC haplotypes)
TT2: tetanus toxoid residues 830-846; SEQ ID NO:12; T-cell antigen (QYIKANSKFIGITELKK; UniProt P04958 830-846, looked up, fragment) [tetanus toxoid residues 830-846; T-cell antigen]	universally immunogenic
TT3: tetanus toxoid residues 947-967; SEQ ID NO:14 (FNNFTVSFWLRVPKVSASHLE; UniProt P04958 947-967, looked up, fragment)	universally immunogenic
